Ends that are not written are not given here.

Among the data in EP0863214A2, “Reporter gene construct for measuring G protein coupled receptor activation” (SMITHKLINE BEECHAM CORPORATION, priority 1997, dated 1998) are Luciferase stimulation values, retold here.

The experiment has as its system HEK 293 cells transfected with MREII VIPII. The format is cell-based, Human. To be noted: wild-type HEK 293 cells or HEK 293 cells expressing the porcine CGRP receptor; endogenous receptors or direct activation of adenylyl cyclase; in the presence of IBMX. The procedure: Day 1: HEK293 cells at a density of 4.5x10^6/T-75 flask in Earl's Minimum Essential Medium (EMEM) supplemented with 10% fetal bovine serum and 2 mM glutamine were incubated overnight in a humidified tissue culture incubator at 37°C, 5% CO2.
Day 2: MREII VIPII DNA (7.8 µg) was mixed with 780 µl of serum free EMEM to produce Solution A. Lipofectamine (23.1 µl; Gibco-BRL) was mixed with 780 µl of serum EMEM to produce Solution B. Solutions A and B were then mixed gently and incubate at room temperature for 15-45 minutes. Cells were then rinsed with 15 ml of serum free EMEM and 6.25 ml of serum free EMEM was added. Combined solutions (A + B) were overlayed and the flask was placed in a tissue culture incubator for 5 hours. Media was replaced with 15 ml of EMEM/10% serum/ 2 mM glutamine and stored in the tissue culture incubator.
Day 3: Ninety-six well tissue culture plates were treated with Matrigel (50 µl/well diluted 1/50 with phosphate buffered saline (PBS); Collaborative Biomedical Products) for > 1 hour. Matrigel solution was then removed and the plate was transfected with HEK 293 cells at a cell density of 2.6 x 10^4/well in 100 µl of supplemented EMEM. […] Cells were then incubated for 6 hours in a humidified tissue culture incubator at 37°C, 5% CO2. Media was removed and cells were washed with 50 µl of PBS.
Cell lysis solution (50 µl; Promega) supplemented with AEBSF (0.24 mg/ml), pepstatin, leupeptin, and aprotinin (5µg/ml each), and DNAse I (50 µg/ml) was added and extracts were frozen. Ten microliters of thawed extract were added to assay plates along with 50 µl of reconstituted luciferase assay reagent (Promega) using a luminometer autoinjector (Dynex MLX) and samples were read. Luciferase activity is expressed as a fold enhancement over the basal luciferase activity expressed in cells that have not been challenged with agonist, IBMX, TPA, or forskolin.
For `Nc1ncnc2c1ncn2[C@@H]1O[C@H](COP(=O)(O)OP(=O)(O)OP(=O)(O)O)[C@@H](O)[C@H]1O` [ATP], the Luciferase stimulation result is reported as “did not stimulate luciferase induction”. For `CCCCC[C@H](O)/C=C/[C@H]1[C@H](O)CC(=O)[C@@H]1C/C=C\CCCC(=O)O` [PGE2], the Luciferase stimulation result is listed as “Luciferase stimulation was observed”. For the molecule `Nc1ncnc2c1ncn2[C@@H]1O[C@H](CO)[C@@H](O)[C@H]1O` [adenosine], the Luciferase stimulation result is recorded as “did not stimulate luciferase induction”.

In the case of `C[N+](C)(C)CCOC(N)=O` [carbachol], the Luciferase stimulation entry was “did not stimulate luciferase induction”. For the molecule “VIP (HSDAVFTDNYTRLRKQMAVKKYLNSILN; not fully specified (C-terminus); ends and bridges not checked; UniProt P01282 125-152, looked up)”, the Luciferase stimulation result is listed as “Luciferase stimulation was observed”. For the molecule “calcitonin (CGNLSTCMLGTYTQDFNKFHTFPQTAIGVGAP; not fully specified (C-terminus, bridges); ends and bridges not checked; UniProt P01258 85-116, looked up)”, the Luciferase stimulation result is on record as “Luciferase stimulation was observed”. Then “endothelin (CSCSSLMDKECVYFCHLDIIW; not fully specified (bridges); ends and bridges not checked; UniProt P05305 53-73, looked up)”, with “did not stimulate luciferase induction”.
